Test results taken from patent US12590062B2, “PD-1/PD-L1 inhibitors” (Gilead Sciences, Inc., priority 2017, dated 2026).
pEC50, pIC50: −log10 of the molar value.

Key:
[1] = target: T1, PD-1/PD-L1 interaction (Homo sapiens, UniProt Q9NZQ7); experiment: PD-1/PD-L1 NFAT reporter co-culture assay; format: cell-based; details: Jurkat PD-1 NFAT-luciferase cells co-cultured with aAPC-PD-L1 CHO cells, 6 hrs at 37° C.; read-out: EC50 NFAT Luciferase
T1 construct: expressed in transfected cells; host or cells: CHO cells (aAPC-PD-L1) co-cultured with Jurkat cells overexpressing PD-1 and an NFAT-luciferase reporter
In short: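 Jurkat cells overexpressing PD-1 with NFAT-driven luciferase were mixed with compound in RPMI 1640/2% FBS and seeded onto overnight-plated CHO aAPC-PD-L1 cells expressing surface anti-CD3 and PD-L1. Co-culture ran 6 h at 37 °C; luminescence read with ONE-Glo; EC50 from four-parameter fit.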

[2] = target: PD-1/PD-L1 (Homo sapiens, UniProt Q9NZQ7); experiment: PD-1/PD-L1 biochemical protein-protein interaction assay (ALPHA); format: binding; details: 0.3 nM His tagged PD-L1, 2.5 nM biotinylated Fc-PD-1, 60 minutes at 25° C., read-out: IC50 PD-L1-PD-1 Alpha IC50-mono PD-L1-fcP-D1
In short: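 Extracellular-domain binding of His-tagged PD-L1 (0.3 nM final) to biotinylated Fc-PD-1 (2.5 nM final) was measured by ALPHA in 25 mM Hepes pH 7.4, 150 mM NaCl, 3.4 mM EDTA, 0.005% Tween 20, 0.01% BSA. After 60 min at 25° C, anti-His acceptor and streptavidin donor beads were added; IC50 from four-parameter fits.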

T1 sequence (Q9NZQ7 19-290): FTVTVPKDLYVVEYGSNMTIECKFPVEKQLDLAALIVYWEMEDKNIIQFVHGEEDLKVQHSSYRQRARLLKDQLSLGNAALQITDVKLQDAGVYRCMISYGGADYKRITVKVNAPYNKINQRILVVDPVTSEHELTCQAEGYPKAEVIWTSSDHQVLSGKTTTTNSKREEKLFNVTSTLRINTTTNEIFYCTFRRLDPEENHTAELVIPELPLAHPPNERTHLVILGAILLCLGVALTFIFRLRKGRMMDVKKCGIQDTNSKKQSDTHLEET
PD-1/PD-L1, sequence (Q9NZQ7 19-238 limits assumed): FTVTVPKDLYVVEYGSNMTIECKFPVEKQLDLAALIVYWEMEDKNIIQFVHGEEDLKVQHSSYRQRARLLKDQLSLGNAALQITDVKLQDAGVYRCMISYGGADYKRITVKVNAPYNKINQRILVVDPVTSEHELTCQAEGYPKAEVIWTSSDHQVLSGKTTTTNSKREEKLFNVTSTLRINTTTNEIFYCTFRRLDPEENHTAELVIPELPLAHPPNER

Row | Structure (SMILES) | pEC50 [1] | pIC50 [2]
1 | O=C(O)C[C@H](O)CNCc1ccc(C(=O)N2CCc3c(-c4cccc5c4CCN5C(=O)c4ccc(CNC[C@@H](O)CC(=O)O)cc4)cccc32)cc1 [Example 181, (3S,3′S)-4,4′-(((([4,4′-biindoline]-1,1′-dicarbonyl)bis(4,1-phenylene))bis(methylene))bis(azanediyl))bis(3-hydroxybutanoic acid)] | 4.51 | 8.48
2 | COc1nc(OCc2cccc(-c3cccc(COc4ccc(CNCCO)c(OC)n4)c3Cl)c2Cl)ccc1CNCCO [Example 186, 2,2′-((((((2,2′-Dichloro-[1,1′-biphenyl]-3,3′-diyl)bis(methylene))bis(oxy))bis(2-methoxypyridine-6,3-diyl))bis(methylene))bis(azanediyl))bis(ethan-1-ol)] | 5.82 | 7.73
3 | COc1nc(OCc2cccc(-c3cccc(COc4ccc(CNC[C@@H](O)CC(=O)O)c(OC)n4)c3Cl)c2Cl)ccc1CNC[C@@H](O)CC(=O)O [Example 187, (3S,3′S)-4,4′-((((((2,2′-Dichloro-[1,1′-biphenyl]-3,3′-diyl)bis(methylene))bis(oxy))bis(2-methoxypyridine-6,3-diyl))bis(methylene))bis(azanediyl))bis(3-hydroxybutanoic acid)] | 5.49 | 9.22
4 | COc1nc(OCc2cccc(-c3cccc(COc4ccc(CNC[C@H](O)CC(=O)O)c(OC)n4)c3Cl)c2Cl)ccc1CNC[C@H](O)CC(=O)O [Example 188, (3R,3′R)-4,4′-((((((2,2′-Dichloro-[1,1′-biphenyl]-3,3′-diyl)bis(methylene))bis(oxy))bis(2-methoxypyridine-6,3-diyl))bis(methylene))bis(azanediyl))bis(3-hydroxybutanoic acid)] | 5.81 | 9.52
5 | Cc1c(COc2cc(OCc3cncc(C#N)c3)c(CNCCO)cc2Cl)cccc1-c1cccc(COc2cc(OCC3CC3)c(CNCCO)cc2Cl)c1C [Example 199, 5-((4-Chloro-5-((3′-((2-chloro-5-(cyclopropylmethoxy)-4-(((2-hydroxyethyl)amino)methyl)phenoxy)methyl)-2,2′-dimethyl-[1,1′-biphenyl]-3-yl)methoxy)-2-(((2-hydroxyethyl)amino)methyl)phenoxy)methyl)nicotinonitrile] | 5.67 | 6.73
6 | Cc1c(COc2cc(OCc3cncc(C#N)c3)c(CNCCO)cc2Cl)cccc1-c1cccc(COc2cc(OCc3ccc(F)c(C#N)c3)c(CNCCO)cc2Cl)c1C [Example 200, 5-((4-Chloro-5-((3′-((2-chloro-5-((3-cyano-4-fluorobenzyl)oxy)-4-(((2-hydroxyethyl)amino)methyl)phenoxy)methyl)-2,2′-dimethyl-[1,1′-biphenyl]-3-yl)methoxy)-2-(((2-hydroxyethyl)amino)methyl)phenoxy)methyl)nicotinonitrile] | 6.05 | 6.86
7 | COc1nc(OCc2cccc(-c3cccc(COc4cc(OCc5cncc(C#N)c5)c(CNCCO)cc4Cl)c3C)c2C)ccc1CNCCO [Example 201, 5-((4-Chloro-2-(((2-hydroxyethyl)amino)methyl)-5-((3′-(((5-(((2-hydroxyethyl)amino)methyl)-6-methoxypyridin-2-yl)oxy)methyl)-2,2′-dimethyl-[1,1′-biphenyl]-3-yl)methoxy)phenoxy)methyl)nicotinonitrile] | 5.95 | 7.51
8 | COc1nc(OCc2cccc(-c3cccc(COc4cc(OCc5cncc(C#N)c5)c(CNC[C@@H](O)CC(=O)O)cc4Cl)c3C)c2C)ccc1CNCCO [Example 202, (S)-4-((5-Chloro-2-((5-cyanopyridin-3-yl)methoxy)-4-((3′-(((5-(((2-hydroxyethyl)amino)methyl)-6-methoxypyridin-2-yl)oxy)methyl)-2,2′-dimethyl-[1,1′-biphenyl]-3-yl)methoxy)benzyl)amino)-3-hydroxybutanoic acid] | 5.72 | 8.49
9 | Cc1c(COc2cc(OCc3cncc(C#N)c3)c(CNCCO)cc2Cl)cccc1-c1cccc(COc2ccc(CNCCO)cc2C(F)(F)F)c1C [Example 204, 5-((4-Chloro-2-(((2-hydroxyethyl)amino)methyl)-5-((3′-((4-(((2-hydroxyethyl)amino)methyl)-2-(trifluoromethyl)phenoxy)methyl)-2,2′-dimethyl-[1,1′-biphenyl]-3-yl)methoxy)phenoxy)methyl)nicotinonitrile] | 6.03 | 7.59
10 | Cc1c(COc2cc(OCc3cncc(C#N)c3)c(CNCCO)cc2Cl)cccc1-c1cccc(COc2cc(OCc3cncc(C#N)c3)c(CNC[C@@H](O)CC(=O)O)cc2Cl)c1C [Example 207, (S)-4-((5-Chloro-4-((3′-((2-chloro-5-((5-cyanopyridin-3-yl)methoxy)-4-(((2-hydroxyethyl)amino)methyl)phenoxy)methyl)-2,2′-dimethyl-[1,1′-biphenyl]-3-yl)methoxy)-2-((5-cyanopyridin-3-yl)methoxy)benzyl)amino)-3-hydroxybutanoic acid] | 5.81 | 8.70
11 | Cc1c(COc2cc(OCc3cncc(C#N)c3)c(CNC[C@@H](O)CC(=O)O)cc2Cl)cccc1-c1cncc(COc2cc(OCc3cncc(C#N)c3)c(CNC[C@@H](O)CC(=O)O)cc2Cl)c1 [Example 208, (S)-4-((4-((5-(3-((4-((((S)-3-Carboxy-2-hydroxypropyl)amino)methyl)-2-chloro-5-((5-cyanopyridin-3-yl)methoxy)phenoxy)methyl)-2-methylphenyl)pyridin-3-yl)methoxy)-5-chloro-2-((5-cyanopyridin-3-yl)methoxy)benzyl)amino)-3-hydroxybutanoic acid] | 4.98 | 8.85
12 | Cc1c(COc2cc(OCc3cncc(C#N)c3)c(CNCC[C@H](O)C(=O)O)cc2Cl)cccc1-c1cccc(COc2cc(OCc3cncc(C#N)c3)c(CNCC[C@H](O)C(=O)O)cc2Cl)c1C [Example 215, (2S,2′S)-4,4′-((((((2,2′-dimethyl-[1,1′-biphenyl]-3,3′-diyl)bis(methylene))bis(oxy))bis(5-chloro-2-((5-cyanopyridin-3-yl)methoxy)-4,1-phenylene))bis(methylene))bis(azanediyl))bis(2-hydroxybutanoic acid)] | 6.38 | 8.90
13 | Cc1c(COc2cc(OCc3ccnc(C#N)c3)c(CNC[C@@H](O)CC(=O)O)cc2Cl)cccc1-c1cccc(COc2cc(OCc3ccnc(C#N)c3)c(CNC[C@@H](O)CC(=O)O)cc2Cl)c1C [Example 219, (3S,3′S)-4,4′-((((((2,2′-dimethyl-[1,1′-biphenyl]-3,3′-diyl)bis(methylene))bis(oxy))bis(5-chloro-2-((2-cyanopyridin-4-yl)methoxy)-4,1-phenylene))bis(methylene))bis(azanediyl))bis(3-hydroxybutanoic acid)] | 6.25 | 9.70
14 | Cc1c(COc2cc(OCc3cc(C#N)cc(C#N)c3)c(CNC[C@@H](O)CC(=O)O)cc2Cl)cccc1-c1cccc(COc2cc(OCc3cc(C#N)cc(C#N)c3)c(CNC[C@@H](O)CC(=O)O)cc2Cl)c1C [Example 220, (3S,3′S)-4,4′-((((((2,2′-dimethyl-[1,1′-biphenyl]-3,3′-diyl)bis(methylene))bis(oxy))bis(5-chloro-2-((3,5-dicyanobenzyl)oxy)-4,1-phenylene))bis(methylene))bis(azanediyl))bis(3-hydroxybutanoic acid)] | 6.75 | 8.70
15 | Cc1c(COc2cc(OCc3cccc(C#N)n3)c(CNC[C@@H](O)CC(=O)O)cc2Cl)cccc1-c1cccc(COc2cc(OCc3cccc(C#N)n3)c(CNC[C@@H](O)CC(=O)O)cc2Cl)c1C [Example 221, (3S,3′S)-4,4′-((((((2,2′-dimethyl-[1,1′-biphenyl]-3,3′-diyl)bis(methylene))bis(oxy))bis(5-chloro-2-((6-cyanopyridin-2-yl)methoxy)-4,1-phenylene))bis(methylene))bis(azanediyl))bis(3-hydroxybutanoic acid)] | 6.56 | 8.82
16 | Cc1c(COc2cc(OCc3cncc(C(N)=O)c3)c(CNC[C@@H](O)CC(=O)O)cc2Cl)cccc1-c1cccc(COc2cc(OCc3cncc(C(N)=O)c3)c(CNC[C@@H](O)CC(=O)O)cc2Cl)c1C [Example 222, (3S,3′S)-4,4′-((((((2,2′-dimethyl-[1,1′-biphenyl]-3,3′-diyl)bis(methylene))bis(oxy))bis(2-((5-carbamoylpyridin-3-yl)methoxy)-5-chloro-4,1-phenylene))bis(methylene))bis(azanediyl))bis(3-hydroxybutanoic acid)] | 6.07 | 9.52
17 | Cc1c(COc2ccc(CNCCO)cc2C(F)(F)F)cccc1-c1cccc(COc2ccc(CNCCO)cc2C(F)(F)F)c1C [Example 223, 2,2′-((((((2,2′-dimethyl-[1,1′-biphenyl]-3,3′-diyl)bis(methylene))bis(oxy))bis(3-(trifluoromethyl)-4,1-phenylene))bis(methylene))bis(azanediyl))bis(ethan-1-ol)] | ≤ 4.30 | 7.46
18 | Cc1c(COc2ccc(CNC[C@@H](O)CC(=O)O)cc2C(F)(F)F)cccc1-c1cccc(COc2ccc(CNC[C@@H](O)CC(=O)O)cc2C(F)(F)F)c1C [Example 224, (3S,3′S)-4,4′-((((((2,2′-dimethyl-[1,1′-biphenyl]-3,3′-diyl)bis(methylene))bis(oxy))bis(3-(trifluoromethyl)-4,1-phenylene))bis(methylene))bis(azanediyl))bis(3-hydroxybutanoic acid)] | 4.60 | 8.74
